US20220380374A1, “1,4-DIHYDROBENZO[D]PYRAZOLO[3,4-F][1,3]DIAZEPINE DERIVATIVES AND RELATED COMPOUNDS AS LRRK2, NUAK1 AND/OR TYK2 KINASE MODULATORS FOR THE TREATMENT OF E.G. AUTOIMMUNE DISEASE” (Origenis GMBH, priority 2019, published 2022)

Tests used:
[1] = biological target: T1, wt human TYK2, catalytic site (Homo sapiens, UniProt P29597); test: HTRF KinEASE assay, TYK2; format: biochemical; settings: 1 μM ATP; read-out: IC50, inhibitory activity toward TYK2
T1 construct: 2 nM wt human TYK2, catalytic site (SignalChem/CAN); purchased SignalChem/CAN
T1 sequence (P29597 897-1176 limits assumed): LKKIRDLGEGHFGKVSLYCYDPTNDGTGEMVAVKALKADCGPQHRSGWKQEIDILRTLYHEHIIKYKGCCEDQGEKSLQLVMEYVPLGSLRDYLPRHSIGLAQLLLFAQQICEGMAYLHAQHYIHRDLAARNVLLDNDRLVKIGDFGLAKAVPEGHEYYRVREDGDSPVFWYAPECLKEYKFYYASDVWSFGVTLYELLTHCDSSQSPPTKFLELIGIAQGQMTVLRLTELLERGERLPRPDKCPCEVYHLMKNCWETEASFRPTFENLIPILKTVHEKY
Experimental: Basic protocol for HTRF KinEASE assay (Cisbio/FRA) inhibitor studies involved two steps: Enzymatic step: Addition of 4 μl of test compound in corresponding DMSO dilutions, 4 μl of kinase/substrate mixture, 2 μl of ATP into 384 well small volume plates. Incubation for at least 30 minutes at room temperature.
Detection step: Addition of 5 μl antibody and 5 μl streptavidin-XL665, read plate after 60 minutes. Data analysis of emission ratios according to KinEASE assay protocol.
Kinase and assay components were adjusted to final concentrations according to the kit protocol. For TYK2: 2 nM wt human TYK2, catalytic site (SignalChem/CAN), 1 μM HTRF KinEASE-TK Substrate-biotin, 1 μM ATP in 1× Kinase Buffer

[2] = biological target: T2, wt human NUAK1, full length (Homo sapiens, UniProt O60285); test: TR-FRET LanthaScreen Eu Kinase Binding Assay, NUAK1; settings: 5 nM Kinase Tracer 236; read-out: IC50, inhibitory activity toward NUAK1
T2 construct: 8 nM wt human NUAK1, full length (ThermoFisher/USA); purchased ThermoFisher/USA
T2 sequence (O60285 1-661): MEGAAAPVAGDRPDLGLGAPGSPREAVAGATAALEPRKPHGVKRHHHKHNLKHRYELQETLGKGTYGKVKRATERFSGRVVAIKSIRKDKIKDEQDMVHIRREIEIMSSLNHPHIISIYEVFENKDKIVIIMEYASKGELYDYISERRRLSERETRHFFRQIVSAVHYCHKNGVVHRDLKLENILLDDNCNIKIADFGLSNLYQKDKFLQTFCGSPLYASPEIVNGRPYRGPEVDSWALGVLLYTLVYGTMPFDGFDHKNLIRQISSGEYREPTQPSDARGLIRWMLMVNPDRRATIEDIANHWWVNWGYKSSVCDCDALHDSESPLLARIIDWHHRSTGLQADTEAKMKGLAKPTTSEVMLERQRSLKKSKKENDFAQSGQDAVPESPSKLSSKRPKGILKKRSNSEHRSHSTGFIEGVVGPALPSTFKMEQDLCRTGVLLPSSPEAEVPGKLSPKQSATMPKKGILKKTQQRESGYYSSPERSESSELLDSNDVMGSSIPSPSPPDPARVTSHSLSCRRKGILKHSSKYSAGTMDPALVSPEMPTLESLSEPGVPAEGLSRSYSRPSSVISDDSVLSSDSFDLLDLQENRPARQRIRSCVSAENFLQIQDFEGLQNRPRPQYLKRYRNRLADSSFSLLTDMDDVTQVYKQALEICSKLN
Experimental: The basic protocol for TR-FRET LanthaScreen Eu Kinase Binding Assay inhibitor studies were performed as follows. LanthaScreen Kinase Binding Assays (ThermoFisher/USA) to evaluate inhibitors were performed by addition of 5 μl of test compound in corresponding DMSO dilutions/5 μl of kinase/antibody mixture, 5 μl of tracer into 384 well small volume plates. After incubation for 1 hour at room temperature, plates were read. Data analysis of emission ratios was according to LanthaScreen Eu Kinase Binding Assay protocol.
Kinase and assay components were adjusted to final concentrations according to the kit protocol. For LRRK2: 5 nM wt human LRRK2, catalytic site, or G2019S human LRRK2, catalytic site (ThermoFisher/USA), 2 nM Eu-Anti-GST Antibody, 10 nM Kinase Tracer 236 in 1× Kinase Buffer A. For NUAK1: 8 nM wt human NUAK1, full length (ThermoFisher/USA), 2 nM Eu-Anti-His Antibody, 5 nM Kinase Tracer 236 in 1× Kinase Buffer A.

Row | SMILES | IC50 [1] [nM] | IC50 [2] [nM]
1 | Fc1cc2c(cc1-c1ccnnc1)N=C(c1c(Cl)cccc1Cl)Nc1c[nH]nc1-2 [Compound 229, 5-(2,6-dichlorophenyl)-9-fluoro-8-(pyridazin-4-yl)-2,4-dihydrobenzo[d]pyrazolo[3,4-f][1,3]diazepine] | < 10 | 100 to 1000
2 | Fc1cc2c(cc1-c1cccnn1)N=C(c1c(Cl)cccc1Cl)Nc1c[nH]nc1-2 [Compound 227, 5-(2,6-dichlorophenyl)-9-fluoro-8-(pyridazin-3-yl)-2,4-dihydrobenzo[d]pyrazolo[3,4-f][1,3]diazepine] | 10 to 100 | 100 to 1000
3 | Fc1cc2c(cc1OC1CCOCC1)N=C(c1c(Cl)cccc1Cl)Nc1c[nH]nc1-2 [Compound 222, 5-(2,6-dichlorophenyl)-9-fluoro-8-((tetrahydro-2H-pyran-4-yl)oxy)-2,4-dihydrobenzo[d]pyrazolo[3,4-f][1,3]diazepine] | < 10 | 100 to 1000
4 | Fc1cc2c(cc1-c1cccnn1)N=C(c1c(F)cccc1Cl)Nc1c[nH]nc1-2 [Compound 228, 5-(2-chloro-6-fluorophenyl)-9-fluoro-8-(pyridazin-3-yl)-2,4-dihydrobenzo[d]pyrazolo[3,4-f][1,3]diazepine] | < 10 | 10 to 100
5 | Fc1cccc(Cl)c1C1=Nc2cc(-c3ccn[nH]3)ccc2-c2[nH]ncc2N1 [Compound 160, 5-(2-chloro-6-fluorophenyl)-8-(1H-pyrazol-5-yl)-1,4-dihydrobenzo[d]pyrazolo[3,4-f][1,3]diazepine] | 10 to 100 | 10 to 100
6 | Fc1cc2c(cc1OC1CCOCC1)N=C(c1c(F)cccc1Cl)Nc1c[nH]nc1-2 [Compound 221, 5-(2-chloro-6-fluorophenyl)-9-fluoro-8-((tetrahydro-2H-pyran-4-yl)oxy)-2,4-dihydrobenzo[d]pyrazolo[3,4-f][1,3]diazepine] | < 10 | 100 to 1000
7 | Fc1cccc(F)c1C1=Nc2c(Br)n[nH]c2-c2ccccc2N1 [Compound 69, 3-bromo-5-(2,6-difluorophenyl)-1,6-dihydrobenzo[d]pyrazolo[3,4-f][1,3]diazepine] | 10 to 100 | 10 to 100
8 | Fc1cccc(Cl)c1C1=Nc2c(Br)n[nH]c2-c2cccnc2N1 [Compound 88] | 10 to 100 | 10 to 100
9 | COc1ccc2c(c1)N=C(c1c(F)cccc1Cl)Nc1cn[nH]c1-2 [Compound 158, 5-(2-chloro-6-fluorophenyl)-8-methoxy-1,4-dihydrobenzo[d]pyrazolo[3,4-f][1,3]diazepine] | 10 to 100 | 10 to 100
10 | Fc1cccc(F)c1C1=Nc2cn[nH]c2-c2cc(Cl)ncc2N1 [Compound 147, 9-chloro-5-(2,6-difluorophenyl)-1,6-dihydropyrazolo[4,3-d]pyrido[4,3-f][1,3]diazepine] | 10 to 100 | 10 to 100
11 | COc1cccc(F)c1C1=Nc2cn[nH]c2-c2ccccc2N1 [Compound 114, 5-(2-fluoro-6-methoxyphenyl)-1,6-dihydrobenzo[d]pyrazolo[3,4-f][1,3]diazepine] | 100 to 1000 | 100 to 1000
12 | CCc1ccc2c(c1)-c1[nH]ncc1N=C(c1c(F)cccc1Cl)N2 [Compound 45, 5-(2-chloro-6-fluorophenyl)-9-ethyl-1,6-dihydrobenzo[d]pyrazolo[3,4-f][1,3]diazepine] | 100 to 1000 | 100 to 1000
13 | Fc1cc2c(cc1-c1ccnnc1)N=C(c1c(F)cccc1Cl)Nc1c[nH]nc1-2 [Compound 230, 5-(2-chloro-6-fluorophenyl)-9-fluoro-8-(pyridazin-4-yl)-2,4-dihydrobenzo[d]pyrazolo[3,4-f][1,3]diazepine] | < 10 | 10 to 100
14 | Cc1cc(F)c2c(c1)-c1[nH]ncc1NC(c1c(F)cccc1F)=N2 [Compound 138, 5-(2,6-difluorophenyl)-7-fluoro-9-methyl-1,4-dihydrobenzo [d]pyrazolo[3,4-f][1,3]diazepine] | 100 to 1000 | 10 to 100
15 | Fc1cccc(-c2ccc3c(c2)N=C(c2c(Cl)cccc2Cl)Nc2c[nH]nc2-3)c1 [Compound 243, 5-(2,6-dichlorophenyl)-8-(3-fluorophenyl)-2,4-dihydrobenzo[d]pyrazolo[3,4-f][1,3]diazepine] | 10 to 100 | 100 to 1000
16 | Fc1cccc(-c2ccc3c(c2)N=C(c2c(F)cccc2F)Nc2c[nH]nc2-3)c1 [Compound 240, 5-(2,6-difluorophenyl)-8-(3-fluorophenyl)-2,4-dihydrobenzo[d]pyrazolo[3,4-f][1,3]diazepine] | 10 to 100 | 10 to 100
17 | Cc1ccc2c(c1)-c1[nH]ncc1NC(c1c(Cl)ccc(Br)c1F)=N2 [Compound 184, 5-(3-bromo-6-chloro-2-fluorophenyl)-9-methyl-1,4-dihydrobenzo [d]pyrazolo[3,4-f][1,3]diazepine] | 100 to 1000 | 10 to 100
18 | COC(=O)Nc1ccc2c(c1)N=C(c1c(F)cccc1F)Nc1c[nH]nc1-2 [Compound 164, methyl(5-(2,6-difluorophenyl)-2,4-dihydrobenzo[d]pyrazolo[3,4-f][1,3]diazepin-8-yl)carbamate] | 10 to 100 | 10 to 100
19 | Cc1ccc2c(c1)-c1n[nH]cc1NC(c1c(F)ccc(C(F)(F)F)c1F)=N2 [Compound 217, 5-(2,6-difluoro-3-(trifluoromethyl)phenyl)-9-methyl-2,4-dihydrobenzo[d]pyrazolo[3,4-f][1,3]diazepine] | 100 to 1000 | 100 to 1000
20 | Fc1ccc2c(c1)-c1[nH]ncc1N=C(c1c(F)cccc1Cl)N2 [Compound 34, 5-(2-chloro-6-fluorophenyl)-9-fluoro-1,6-dihydrobenzo[d]pyrazolo[3,4-f][1,3]diazepine] | 10 to 100 | 10 to 100
21 | COc1ccc2c(c1)-c1[nH]ncc1N=C(c1c(F)cccc1F)N2 [Compound 38, 5-(2,6-difluorophenyl)-9-methoxy-1,6-dihydrobenzo[d]pyrazolo[3,4-f][1,3]diazepine] | 100 to 1000 | 100 to 1000
22 | CC[C@H](C)Oc1cc2c(cc1F)-c1n[nH]cc1N=C(c1c(F)cccc1Cl)N2 [Compound 247, (S)-8-(sec-butoxy)-5-(2-chloro-6-fluorophenyl)-9-fluoro-2,6-dihydrobenzo[d]pyrazolo[3,4-f][1,3]diazepine] | 10 to 100 | 10 to 100
23 | Fc1cc2c(cc1-c1ccnnc1)N=C(c1c(F)cccc1F)Nc1c[nH]nc1-2 [Compound 226, 5-(2,6-difluorophenyl)-9-fluoro-8-(pyridazin-4-yl)-2,4-dihydrobenzo[d]pyrazolo[3,4-f][1,3]diazepine] | < 10 | < 10
24 | Fc1cccc(-c2ccc3c(c2)N=C(c2c(F)cccc2Cl)Nc2c[nH]nc2-3)c1 [Compound 241, 5-(2-chloro-6-fluorophenyl)-8-(3-fluorophenyl)-2,4-dihydrobenzo[d]pyrazolo[3,4-f][1,3]diazepine] | < 10 | 10 to 100
25 | Fc1cccc(F)c1C1=Nc2cc(OC3CCOCC3)ccc2-c2[nH]ncc2N1 [Compound 99, 5-(2,6-difluorophenyl)-8-((tetrahydro-2H-pyran-4-yl)oxy)-1,4-dihydrobenzo[d]pyrazolo[3,4-f][1,3]diazepine] | 10 to 100 | 10 to 100
26 | Fc1ccc2c(c1)-c1[nH]ncc1N=C(c1c(F)cccc1F)N2 [Compound 33, 5-(2,6-difluorophenyl)-9-fluoro-1,6-dihydrobenzo[d]pyrazolo[3,4-f][1,3]diazepine] | 10 to 100 | 10 to 100
